# Assays:
# [1] = system: NASH; settings: over 800 patients and healthy volunteers; cited from earlier work
# [2] = up to 2-year carcinogenicity studies; cited from earlier work
# [3] = system: fibrosing NASH-model of rats fed a CDAA+1% cholesterol diet; experiment: Chronic CDAA+1% cholesterol rat model: hepatic gene expression (qPCR); assay type: in vivo, Wistar rats; settings: liver; GFT505 3 mg/kg/d, OCA 10 mg/kg/d, alone or combined; 12 weeks
# Method: (§1) The preventive effects of Elafibranor alone, OCA alone and the combination of both were assessed in a fibrosing NASH-model of rats fed a CDAA+1% cholesterol diet. 150-175 g male Wistar rats were fed a control (CSAA) diet, CDAA+1% cholesterol diet, or CDAA+1% cholesterol diet supplemented with Elafibranor 1, 3 and 10 mg/kg/day, OCA 10 and 30 mg/kg/day or combined drugs (Elafibranor 1, 3 and 10 mg/kg/day combined to OCA 10 mg/kg/day) for 12 weeks.
# (§2) The body weight and the food intake were monitored twice per week. On the last day of treatment, rats were sacrificed after a 6 h fasting period. The liver was rapidly excised for biochemical and histological studies.
# Total RNA was isolated from rat livers using RNeasy Mini Kit (Qiagen) following manufacturer's instructions. Total RNA were reverse transcribed into cDNA using M-MLV RT (Moloney Murine Leukemia Virus Reverse Transcriptase) (Invitrogen cat #28025) in 1×RT buffer (Invitrogen), 0.5 mM DTT (Invitrogen), 0.18 mM dNTPs (Promega), 200 ng pdN6 (Amersham) and 30 U of RNase inhibitor (Promega).
# Quantitative PCR was then carried out using the CFX96 TOUCH Real-Time PCR Detection System (Biorad). Briefly, the PCR reactions were performed in 96-WP format in 25 μl of total volume containing 1 μL of reverse transcription reaction, 0.5 μL of reverse and forward primers (10 pmol each), and 12.5 μl of 2×iQ SYBR Green Supermix (BioRad), using the following primer sequences:
# Expression levels were normalized using the expression of RPLP0 gene as a housekeeping gene of reference in samples. For each gene, the standard curves were drawn by selecting the best points (at least three points) in order to have PCR reaction efficiency close to 100% and a correlation coefficient close to 1. Expression levels were determined using the standard curve equation for both the housekeeping gene and the target gene (taking into account the specific PCR efficiency of each target gene).
# [4] = system: fibrosing NASH-model of rats fed a CDAA+1% cholesterol diet; experiment: Chronic CDAA+1% cholesterol rat model: hepatic collagen content (hydroxyproline); assay type: in vivo, Wistar rats; settings: GFT505 3 mg/kg/d, OCA 10 mg/kg/d, alone or combined; 12 weeks in diet
# Method: as §1, §2
# The hepatic collagen content was determined using the appropriate QuickZyme kit (Total collagen assay, cat #QZB-totcol2). The assay is based on the detection of hydroxyproline, which is a non-proteinogenic amino acid mainly found in the triple helix of collagen. Thus, hydroxyproline in tissue hydrolysates can be used as a direct measure of the amount of collagen present in the tissue (without discrimination between procollagen, mature collagen and collagen degradation products).
# Complete hydrolysis of tissue samples in 6M HCl at 95° C. is required before dosing the hydroxyproline. The assay results in the generation of a chromogen with a maximum absorbance at 570 nm. Results are expressed as mg of collagen/g of liver.
# [5] = system: LPS-activated macrophages (THP-1); experiment: TNFα secretion (HTRF) in LPS-activated THP-1 macrophages; assay type: cell-based, human; settings: Elafibranor 1 μM alone; LPS 100 ng/ml 6 h
# Method: THP-1 monocytes (ECACC #88081201) were seeded at a density of 25550 cells per well in 384-well plate in RPMI1640 (Gibco, 21875) supplemented with 10% SVF and differentiated into macrophages using PMA (Phorbol 12-myristate 13-acetate, Sigma, P8139) at the final concentration of 100 ng/ml for 24 hours.
# For these experiments, a checkerboard matrix was generated. ELA and component stocks were serially diluted in DMSO in 6-points series in a column (ELA) and a 10-points series in a raw (component) of a 96-well plate for other compounds. Subsequently, the 6×10 combination matrix was generated by 1:1 mixing of all single agent concentrations.
# After 24 hrs with PMA, medium was removed, and replaced by serum free RPMI. […]
# Human TNFα is quantified in the supernatants using the Homogeneous Time Resolved Fluorescence (HTRF) technology (Cisbio 62[…]), based on FRET technology. FRET (Fluorescence Resonance Energy Transfer) is based on the transfer of energy between two fluorophores, a donor and an acceptor, when in close proximity. Molecular interactions between biomolecules can be assessed by coupling each partner with a fluorescent label and by detecting the level of energy transfer (665 nm). […]
# [6] = system: 3D Huh7 spheroids; experiment: Lipid accumulation (AdipoRed) in 3D Huh7 spheroid culture under metabolic NASH stimulus; assay type: cell-based; settings: Elafibranor 3 μM alone, Day 7
# Method: Cryopreserved Huh7 were purchased from ECACC. Cells were grown in ULA plates (Costar), William's medium (Sigma) containing 10% FBS (Gibco) at 37° C. in a humidified 5% CO2 cell culture incubator. Cells aggregated and formed spheroids within 5 days.
# For these experiments, a checkerboard matrix was generated. ELA and component (ii) stocks were serially diluted in DMSO in 2-points series in a row (ELA) and a 3-points series in a column (component (ii)) of a 96-well plate. Subsequently, the 2×3 combination matrix was generated by 1:1 mixing of all single agent concentrations.
# 3D Huh7 spheroids were cultured under standard conditions, as described above. They were then deprived for 24 hours in serum-free medium. For the treatments with ELA, component (ii) and the respective ELA/component (ii) combinations, the serum-deprived spheroids were treated with both a metabolic NASH stimulus and the compounds (Day 0) followed by the renewal of the metabolic NASH stimulus and the compounds at Day 4 for an additional 3 days period. The spheroids were stained for lipid accumulation at Day 7.
# Intracellular lipid accumulation was quantified using the ADIPORED Assay Reagent (Lonza). Spheroids were subjected to fluorescence assay quantification at λexc: 485 nm and λem: 572 nm, using fluorescence plate reader (TECAN).
substance,measurement,setting,value
"1-[4-methylthiophenyl]-3-[3,5-dimethyl-4-carboxydimethylmethyloxyphenyl]prop-2-en-1-one [Elafibranor]","clinical properties for NASH (liver markers, insulin sensitivity, plasma lipids, anti-inflammatory)",[1],has demonstrated beneficial properties for NASH
same,safety concern,[2],absence of safety concern
same,"CCR5 mRNA level (marker of inflammation), percentage over the untreated CDAA + 1% cholesterol rats",[3],103% ± 51%
same,"TGFβ1 mRNA level, percentage over the untreated CDAA + 1% cholesterol rats",[3],94% ± 20%
same,"TIMP1 mRNA level, percentage over the untreated CDAA + 1% cholesterol rats",[3],78% ± 23%
same,"αSMA mRNA level, percentage over the untreated CDAA + 1% cholesterol rats",[3],66% ± 27%
same,"Hepatic collagen content, percentage over the untreated CDAA + 1% cholesterol rats",[4],45% ± 12%
same,inhibition of TNFα secretion,[5],21%
same,reduction of fat content,[6],12%

# — patent US11478440B2, “Combination of Elafibranor or derivatives thereof with an anti-NASH, anti-fibrotic or anti-cholestatic agent” (GENFIT, priority 2017, dated 2022)
